Measurements: BindingDB's records for doi:10.1016/j.bmcl.2010.08.063 (Merck Research Laboratories, 2010)

Assay: Positive modulation of GluR1

**Q.** For CNCc1cn(CC(=O)Nc2sc3c(c2C(N)=O)CCCC3)nc1C(F)(F)F, which EC50 is on record?
**A.** The EC50 was 126 nM.

**Q.** For NCc1cn(CC(=O)Nc2sc3c(c2C(N)=O)CCCC3)nc1C(F)(F)F, which EC50 is on record?
**A.** The EC50 was 794 nM.

**Q.** Which EC50 does the source give for COCCNCc1cn(CC(=O)Nc2sc3c(c2C(N)=O)CCCC3)nc1C(F)(F)F here?
**A.** Its EC50 is 1580 nM.

**Q.** Which EC50 does the source give for CC(C)NCc1cn(CC(=O)Nc2sc3c(c2C(N)=O)CCCC3)nc1C(F)(F)F here?
**A.** The EC50 was 3160 nM.

**Q.** Which EC50 does the source give for CN(C)Cc1cn(CC(=O)Nc2sc3c(c2C(N)=O)CCCC3)nc1C(C)(C)C here?
**A.** Its EC50 is 316 nM.

**Q.** Which EC50 does the source give for CCNCc1cn(CC(=O)Nc2sc3c(c2C(N)=O)CCCC3)nc1C(C)(C)C here?
**A.** Its EC50 is 794 nM.

**Q.** For CNCc1cn(CCC(=O)Nc2sc3c(c2C(N)=O)CCCC3)nc1C(F)(F)F, which EC50 is on record?
**A.** The EC50 was 1580 nM.

**Q.** Which EC50 does the source give for CC(C)NCc1cn(CC(=O)Nc2sc3c(c2C(N)=O)CCCC3)nc1C(C)(C)C here?
**A.** The EC50 was 1580 nM.

**Q.** Which EC50 does the source give for CCNCc1cn(CCC(=O)Nc2sc3c(c2C(N)=O)CCCC3)nc1C(F)(F)F here?
**A.** Its EC50 is 2510 nM.

**Q.** Which EC50 does the source give for CCNCc1cn(CC(=O)Nc2sc3c(c2C(N)=O)CCCC3)nc1C(F)(F)F here?
**A.** Its EC50 is 794 nM.

**Q.** For CNCc1cn(CC(=O)Nc2sc3c(c2C(N)=O)CCCC3)nc1C(C)(C)C, which EC50 is on record?
**A.** Its EC50 is 316 nM.

**Q.** For CCN(CC)Cc1cn(CC(=O)Nc2sc3c(c2C(N)=O)CCCC3)nc1C(F)(F)F, which EC50 is on record?
**A.** The EC50 was 631 nM.

**Q.** With CNCc1cn(CC(=O)Nc2sc3c(c2C(=O)NC)CCCC3)nc1C(F)(F)F as the compound, how does the EC50 read?
**A.** Its EC50 is 1580 nM.

**Q.** Which EC50 does the source give for CCN(CC)Cc1cn(CCC(=O)Nc2sc3c(c2C(N)=O)CCCC3)nc1C(F)(F)F here?
**A.** Its EC50 is 2000 nM.

**Q.** For NC(=O)c1c(NC(=O)Cn2cc(CN3CCC3)c(C(F)(F)F)n2)sc2c1CCCC2, which EC50 is on record?
**A.** Its EC50 is 1000 nM.

**Q.** With O=C(Cn1nc(C(F)(F)F)c2c1CCCC2)Nc1sc2c(c1C(=O)N[C@@H]1CCNC1)CCCC2 as the compound, how does the EC50 read?
**A.** Its EC50 is 251 nM.

**Q.** For NC(=O)c1c(NC(=O)Cn2nc(C(F)(F)F)c3c2CCNC3)sc2c1CCCC2, which EC50 is on record?
**A.** The EC50 was 1000 nM.

**Q.** Which EC50 does the source give for CN(C)Cc1cn(CC(=O)Nc2sc3c(c2C(N)=O)CCCC3)nc1C(F)(F)F here?
**A.** Its EC50 is 501 nM.

**Q.** For CC(C)(C)c1nn(CC(=O)Nc2sc3c(c2C(N)=O)CCCC3)cc1CNC1CC1, which EC50 is on record?
**A.** The EC50 was 1580 nM.

**Q.** With NC(=O)c1c(NC(=O)Cn2cc(CNC3CC3)c(C(F)(F)F)n2)sc2c1CCCC2 as the compound, how does the EC50 read?
**A.** Its EC50 is 631 nM.

**Q.** With O=C(Cn1nc(C(F)(F)F)c2c1CCCC2)Nc1sc2c(c1CO)CCCC2 as the compound, how does the EC50 read?
**A.** Its EC50 is 251 nM.
